According to US20230305022A1, “Biomarkers in Primary Biliary Cholangitis” (University of Newcastle upon Tyne, priority 2020, published 2023):

System: Ep-CAM
Experiment: Discovery serum proteomics (Olink), UDCA-treated vs treatment-naïve PBC patients
Format: in vivo, human
Settings: serum NPX, UDCA 13-15 mg/kg/day for >12 months (n=416) vs treatment-naïve (n=68)
Method: UDCA-Treated PBC: These were PBC patients who had been taking UDCA at a therapeutic dose (13-15 mg/kg/day) for greater than 12 months. Clinical parameters, including serum biochemistry were available both pre-treatment and after 12 months of UDCA therapy. This allowed all UDCA-treated patients to be assigned to responder and non-responder groups using current standard criteria including Paris 1 (Alanine Transaminase (ALT)>2× upper limit of normal [ULN], Alkaline Phosphatase (ALP)>3×ULN, Bilirubin>1×ULN) (Corpechot et al., 2008), Paris 2 (ALP and ALT both >1.5×ULN)(Corpechot et al., 2011) and POISE (ALP <1.67×ULN and bilirubin <1×ULN) (Nevens et al., 2016). UK-PBC risk score 10-year predicted survival was also calculated for UDCA-treated patients after therapy. Patients taking fibrates and or OCA were not included in the current study. […]
Blood was collected under the approval of the Human Tissue Authority (HTA) by the UK-PBC tissue Bioresource with written informed patient consent obtained in accordance with research and ethics committee (REC) approval (14/NW/1146). […] 4 μl serum was analysed for 368 analytes from 4 distinct panels including Cardiovascular II &Ill, Inflammation and Oncology II (https://www.olink.com/). […] In turn, this was amplified by microfluidic quantitative PCR with normalised protein expression (NPX) data generated by a ΔΔct calculation method. […]

In the case of `C[C@H](CCC(=O)O)[C@H]1CC[C@H]2[C@@H]3[C@@H](O)C[C@@H]4C[C@H](O)CC[C@]4(C)[C@H]3CC[C@]12C` [UDCA, Ursodeoxycholic acid], the “log Fold Change of serum protein, UDCA Tx vs Naïve Tx” value is reported as −0.84.
